The nature of this series: Dissolution in phosphate buffer when preparing the protein stabilization solution. The class given is physicochemical. The following applies: phosphate buffer (pH 7.4). On the procedure:
Two protein stabilizer solutions were prepared by dissolving the compound produced in Synthesis Example 1 in a phosphate buffer (pH 7.4) in such a manner that the final concentrations were controlled at 1.000% by mass (Example 1-1-1) and 0.100% by mass (Example 1-1-2) shown in Table 1 respectively.
Preparation of a protein stabilization solution was tested in the same manner as Example 1-1 except for using the compound produced in Comparative Synthesis Example 1. However, the compound produced in Comparative Synthesis Example 1 was not dissolved in the phosphate buffer, so that the protein stabilization effect could not evaluated.

As for `CCCCCCCCCCCCCCCCCCCCSCC(C)C(=O)OCCOP(=O)([O-])OCC[N+](C)(C)C` (stereo not shown) [Comparative Synthesis Example 1, 2-[3-(eicosasulfanyl)-2-methylpropionyloxy]ethyl-2-(trimethylammonio)ethyl phosphate], the “Dissolution in the phosphate buffer” value is given as “not dissolved”.

For the origin of these results see patent US9879250B2, “Protein-stabilizing agent and protein-stabilizing method” (NOF CORPORATION, priority 2014, dated 2018).
